Data published in article PMC5741510 (Cell chemical biology, 2017).

Molecular target: dihydroorotate dehydrogenase (DHODH) (Escherichia coli, UniProt P0A7E1)
Assay: continuous DCIP-reduction assay at […] nm, Lineweaver-Burk analysis
Format: biochemical

Sequence of dihydroorotate dehydrogenase (DHODH) (P0A7E1 whole entry): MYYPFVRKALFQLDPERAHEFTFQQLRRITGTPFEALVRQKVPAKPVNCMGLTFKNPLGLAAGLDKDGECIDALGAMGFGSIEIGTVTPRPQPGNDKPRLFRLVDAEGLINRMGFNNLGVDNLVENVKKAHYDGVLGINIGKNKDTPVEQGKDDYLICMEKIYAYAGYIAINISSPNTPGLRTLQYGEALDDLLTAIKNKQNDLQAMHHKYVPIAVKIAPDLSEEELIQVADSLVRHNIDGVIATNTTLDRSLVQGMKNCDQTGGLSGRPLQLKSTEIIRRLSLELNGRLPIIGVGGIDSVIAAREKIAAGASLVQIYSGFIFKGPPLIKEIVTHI

Question: Which Ki does the source give for `CCCCCCCc1cc(=O)c2ccccc2n1O` [HQNO, 2-heptyl-4(1H)-quinolone N-oxide] here?
Answer: 239 nM

Question: `CCCCCCC=CCc1nc2ccccc2c(O)c1C` [HMNQ, 4-hydroxy-3-methyl-2-(2-nonenyl)-quinoline] was tested. Which Ki did it give?
Answer: 51 nM
